Assay results: PMC5147891 (PLoS ONE, 2016)
Several values for one entry are separate records, joined by “and”; a condition that tells them apart may be missing. Equal values may be shown once. Marks after values point to notes of the source that are not given here.

Assays:
[1] = target: T1, hCB2 receptors (Homo sapiens, UniProt P34972); experiment: Forskolin-stimulated intracellular [3H]cAMP in intact CHO-hCB2 cells; assay type: cell-based; details: values only approximate; for EMAX, intracellular [3H]cAMP: forskolin-stimulated cAMP; for EC50: increase of forskolin-stimulated cAMP
T1 construct: expressed in transfected cells
Procedure: CHO-hCB1, CHO-hCB2, or CHO-hMOR cells were plated separately in normal culture media into 24-well plates at a density of 6 × 10^6 cells/plate and incubated overnight at 37°C in 5% CO2. As previously described, the following day culture media was removed from each well and replaced with 500 μl pre-incubation mixture containing either HAM’s F-12 K (CHO-hCB1) or DMEM (CHO-hCB2 and CHO-hMOR) with 0.9% NaCl, 500 μM 3-isobutyl-1-methylxathine (IBMX) and 2 μCi/well [^3H]adenine. Cells were incubated for 3–5 hr at 37°C. The pre-incubation mix was removed and indicated concentrations of drugs were added to the individual wells for 15 min at 37°C in a Krebs-Ringer-HEPES solution (10 mM HEPES, 110mM NaCl, 25mM Glucose, 55mM Sucrose, 5mM KCl, 1mM MgCl2, 1.8 mM CaCl2, pH 7.4) containing IBMX, and 10 μM forskolin. Reactions were terminated by adding 50 μl 2.2N HCl and [^3H]cAMP was isolated by employing alumina column chromatography. Radioactivity contained in 4 ml of the final column eluate was counted by a Packard-Tri-carb 2100/TR liquid scintillation counter after adding 10 ml of liquid scintillation cocktail.
To determine if modulation of adenylyl cyclase activity by SERMs was mediated through CB2 receptors coupling to Gi/o proteins, additional cAMP assays were conducted following overnight treatment with pertussis toxin as described elsewhere. Briefly, CHO-hCB2 cells were seeded into 24-well plates as described above in normal culture media containing 100 ng/ml of pertussis toxin and incubated overnight at 37°C. Pertussis toxin-treated media was removed and measurement of intracellular [^3H]cAMP levels following indicated SERM treatments was conducted as described above.
(§1) Data presented are expressed as mean ± standard error of the mean (S.E.M.) for a minimum of three experiments, each performed in triplicate. GraphPad Prism version 6.0f (GraphPad Software Inc.) was used for all curve-fitting and statistical analyses. Non-linear regression for one-site competition was used to determine the IC50 for competition receptor binding. IC50 values were subsequently converted to Ki values (a measure of receptor affinity) by the Cheng-Prusoff equation [31]. Non-linear regression was also used to analyze concentration-effect curves to determine the EC50 or IC50 (measures of potency) and Emax or Imax (measures of efficacy) for GTPγS binding and adenylyl cyclase experiments, respectively. All dissociation constants and measurements of potency were converted to pKi, pKB, pEC50, or pIC50 values by taking the negative log of each value so that parametric tests could be used for statistical comparisons. To compare three or more groups, statistical significance of the data was determined by a one-way ANOVA, followed by post hoc comparisons using a Tukey's or Dunnett's test. To compare two groups, the non-paired Student's t-test was used.

[2] = target: T1, hCB2 receptors; experiment: Competition receptor binding with [3H]CP-55,940, CHO-hCB2 membranes; details: [3H]CP-55,940 binding, CHO-hCB2, 0.2 nM [3H]CP-55,940, CHO-hCB2 membranes
Procedure: (§2) CHO-hCB1, CHO-hCB2 and CHO-hMOR cells were homogenized individually with 10 complete strokes utilizing a 7ml Dounce glass homogenizer in an ice-cold buffer containing 50 mM HEPES pH 7.4, 3 mM MgCl2, and 1 mM EDTA as described previously. The homogenized samples were then centrifuged at 40,000 × g for 10 min at 4°C. Supernatants were discarded; the pellets re-suspended in the buffer, homogenized again, and centrifuged similarly twice more. After the final centrifugation step, supernatants were discarded and pellets were re-suspended in ice-cold 50 mM HEPES, pH 7.4 to achieve an approximate protein concentration of 10 mg/ml. Membrane homogenates were divided into aliquots and stored at −80°C for future use. A small aliquot of each membrane preparation was removed prior to freezing and the protein concentration was determined using BCA Protein Assay (Thermo Fisher Scientific, Waltham, MA).
(§3) Competition receptor binding was performed as reported earlier. […] The total volume of the incubation mixture was 1 ml. All reactions were mixed and allowed to reach equilibrium binding by incubation at room temperature for 90 min. […] Binding was terminated by rapid vacuum filtration through glass fiber filters (Brandel, Gaithersburg, MD), followed by four 5 ml washes of ice-cold 50 mM Tris-HCl (pH 7.4) buffer containing 0.1% bovine serum albumin. Four ml of scintiverse scintillation fluid (Fisher Scientific, Waltham, MA) was added to the filters and the amount of radioactivity was quantified 24 hr later utilizing liquid scintillation spectrophotometry.
as §1

[3] = target: T1, hCB2 receptors; experiment: Antagonism of CP-55,940 inhibition of AC activity in intact CHO-hCB2 cells; assay type: cell-based
Procedure: (§4) After overnight seeding into 24-well plates and pre-incubation of cells with [^3H]adenine for 3–5 hr at 37°C as described above, media was removed and the indicated concentration of the SERM to be tested was added to all wells of the 24-well plate. […] Reactions were terminated and [^3H]cAMP isolated as described above.
as §1

[4] = target: T2, hCB1 receptors (Homo sapiens, UniProt P21554); experiment: Competition receptor binding with [3H]CP-55,940, CHO-hCB1 membranes; details: for Ki: [3H]CP-55,940 binding, CHO-hCB1, 0.2 nM [3H]CP-55,940, CHO-hCB1 membranes; for Selectivity (CB1/CB2): ratio hCB1-Ki/hCB2-Ki
Procedure: as §2, §3, §1

[5] = target: T2, hCB1 receptors; experiment: Antagonism of CP-55,940 inhibition of AC activity in intact CHO-hCB1 cells; assay type: cell-based; details: for Type of antagonism of CP-55,940 / IMAX of CP-55,940, intracellular [3H]cAMP: CHO-hCB1 cells; for Kb: read-out: Kb (antagonist dissociation constant); for IMAX of CP-55,940, intracellular [3H]cAMP: CP-55,940 alone or after pre-incubation with AM-281 1 μM, Z-Tam 30 μM, Z-4OHT 10 μM, Z-End 30 μM
Procedure: as §4, §1

[6] = tested on: ERs; details: ref [23], [24]; cited from earlier work
[7] = target: T1, hCB2 receptors; experiment: [35S]GTPγS binding (G-protein activity), CHO-hCB2 membranes; assay type: biochemical; details: 10 μM
Procedure: as §2
The GTPγS binding assay to measure G-protein activation was performed as previously described. Briefly, in a total volume of 1 ml, 25 μg of CHO-hCB2, 50 μg of CHO-hCB1-Rx or 50 μg of CHO-hMOR membranes homogenates were added to each reaction mixture containing 0.1 nM [^35S]GTPγS, 20 mM HEPES, 10 mM MgCl2, 100 mM NaCl, 10 μM GDP, 0.1% bovine serum albumin and the indicated concentrations of ligand to be examined. After mixing, reaction mixtures were incubated at 30°C for 30 min. […] Nonspecific binding was defined by the amount of radioactivity remaining in the presence of 10 μM non-radiolabeled GTPγS. […] Four ml of scintiverse scintillation fluid (Fisher Scientific, Waltham, MA) was added to the filters and the amount of radioactivity was quantified 24 hr later utilizing liquid scintillation spectrophotometry.
Data presented are expressed as mean ± standard error of the mean (S.E.M.) for a minimum of three experiments, each performed in triplicate. […] To compare three or more groups, statistical significance of the data was determined by a one-way ANOVA, followed by post hoc comparisons using a Tukey's or Dunnett's test. […]

[8] = target: T3, human mu-opioid receptors (hMOR) (Homo sapiens, UniProt P35372); experiment: [35S]GTPγS binding (G-protein activity), CHO-hMOR membranes; assay type: biochemical; details: 10 μM
T3 construct: expressed in transfected cells
Procedure: as §2, with “Membrane homogenates were divided into aliquots and stored at −80°C for future use.” left out
The GTPγS binding assay to measure G-protein activation was performed as previously described. […] Nonspecific binding was defined by the amount of radioactivity remaining in the presence of 10 μM non-radiolabeled GTPγS. […] Four ml of scintiverse scintillation fluid (Fisher Scientific, Waltham, MA) was added to the filters and the amount of radioactivity was quantified 24 hr later utilizing liquid scintillation spectrophotometry.
Data presented are expressed as mean ± standard error of the mean (S.E.M.) for a minimum of three experiments, each performed in triplicate. […]

[9] = target: T2, hCB1 receptors; experiment: [35S]GTPγS binding (G-protein activity), CHO-hCB1 membranes; assay type: biochemical; details: read-out: IMAX, inhibition of basal [35S]GTPγS binding
Procedure: as §2
The GTPγS binding assay to measure G-protein activation was performed as previously described. Briefly, in a total volume of 1 ml, 25 μg of CHO-hCB2, 50 μg of CHO-hCB1-Rx or 50 μg of CHO-hMOR membranes homogenates were added to each reaction mixture containing 0.1 nM [^35S]GTPγS, 20 mM HEPES, 10 mM MgCl2, 100 mM NaCl, 10 μM GDP, 0.1% bovine serum albumin and the indicated concentrations of ligand to be examined. After mixing, reaction mixtures were incubated at 30°C for 30 min. […] Nonspecific binding was defined by the amount of radioactivity remaining in the presence of 10 μM non-radiolabeled GTPγS. Reactions were terminated by rapid vacuum filtration through glass fiber filters followed by four washes with ice cold 50 mM HEPES (pH 7.4) containing 0.1% bovine serum albumin. Four ml of scintiverse scintillation fluid (Fisher Scientific, Waltham, MA) was added to the filters and the amount of radioactivity was quantified 24 hr later utilizing liquid scintillation spectrophotometry.
as §1, with “All dissociation constants and measurements of potency were converted to pKi, pKB, pEC50, or pIC50 values by taking the negative log of each value so that parametric tests could be used for statistical comparisons.” left out, “To compare two groups, the non-paired Student's t-test was used.” left out

T1 sequence (P34972 whole entry): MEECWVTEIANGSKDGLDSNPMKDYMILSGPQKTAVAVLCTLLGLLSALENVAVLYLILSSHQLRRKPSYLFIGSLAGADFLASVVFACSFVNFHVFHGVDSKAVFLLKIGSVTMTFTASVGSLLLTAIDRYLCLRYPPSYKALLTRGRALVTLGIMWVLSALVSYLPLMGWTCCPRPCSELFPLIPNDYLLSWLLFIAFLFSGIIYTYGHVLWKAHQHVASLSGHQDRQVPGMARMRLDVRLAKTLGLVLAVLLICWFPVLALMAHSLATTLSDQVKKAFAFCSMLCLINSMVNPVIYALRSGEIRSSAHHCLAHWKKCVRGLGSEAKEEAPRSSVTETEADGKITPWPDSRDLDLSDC
T2 sequence (P21554 whole entry): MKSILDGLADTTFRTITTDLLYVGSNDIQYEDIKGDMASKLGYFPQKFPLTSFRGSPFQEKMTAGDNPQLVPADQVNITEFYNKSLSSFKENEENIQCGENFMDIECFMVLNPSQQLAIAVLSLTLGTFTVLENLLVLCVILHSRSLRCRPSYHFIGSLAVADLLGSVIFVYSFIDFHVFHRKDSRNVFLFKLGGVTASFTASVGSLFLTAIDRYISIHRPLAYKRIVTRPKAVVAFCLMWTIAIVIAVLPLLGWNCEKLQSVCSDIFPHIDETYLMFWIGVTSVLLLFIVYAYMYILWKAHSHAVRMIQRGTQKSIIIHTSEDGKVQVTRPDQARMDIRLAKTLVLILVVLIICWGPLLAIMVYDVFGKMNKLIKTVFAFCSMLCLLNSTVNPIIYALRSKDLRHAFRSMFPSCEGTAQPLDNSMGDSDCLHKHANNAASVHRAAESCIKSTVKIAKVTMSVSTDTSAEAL
T3 sequence (P35372 whole entry): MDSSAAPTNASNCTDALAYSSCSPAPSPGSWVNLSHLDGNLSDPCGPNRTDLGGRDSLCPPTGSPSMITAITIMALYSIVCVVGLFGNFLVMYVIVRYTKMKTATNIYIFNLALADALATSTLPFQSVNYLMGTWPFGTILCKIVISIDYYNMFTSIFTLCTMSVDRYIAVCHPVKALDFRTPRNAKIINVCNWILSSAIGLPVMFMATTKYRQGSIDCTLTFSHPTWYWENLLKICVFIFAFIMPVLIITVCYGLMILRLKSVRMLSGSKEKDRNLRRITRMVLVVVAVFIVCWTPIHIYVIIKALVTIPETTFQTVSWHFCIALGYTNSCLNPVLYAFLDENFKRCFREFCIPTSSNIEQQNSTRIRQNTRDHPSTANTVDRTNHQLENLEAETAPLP

EMAX, intracellular [3H]cAMP [1] | EC50 [1] | Ki [2] | Type of antagonism of CP-55,940 [3] | Kb ([3]; against CP-55,940, AM-630 1 μM, Z-Tam 10 μM, Z-4OHT 10 μM, read-out: Kb (antagonist dissociation constant)) | Ki [4] | Selectivity (CB1/CB2) [4] | Type of antagonism of CP-55,940 [5] | Kb [5] | Shift-to-the-right in potency (IC50) of CP-55,940 ([3]; Z-End 30 μM) | Structure (SMILES) | Functional activity at ERs [6] | IMAX, decrease in basal G-protein activity ([35S]GTPγS binding) [7] | Decrease in [35S]GTPγS binding [8] | inhibition at 10 µM [9] | IMAX of CP-55,940, intracellular [3H]cAMP ([3]; CP-55,940 alone or after pre-incubation with AM-630 1 μM, Z-Tam 10 μM, Z-4OHT 10 μM, Z-End 30 μM) | IMAX of CP-55,940, intracellular [3H]cAMP [5] | IMAX of CP-55,940, intracellular [3H]cAMP ([5]; listed as +Z-Tam)
323 ± 37^a^,^b % | 4900 nM | 495 nM | surmountable antagonism | 856 nM and 851 nM | 681 nM | 1.38 | surmountable antagonism | 4680 nM |  | CC/C(=C(\c1ccc(O)cc1)c1ccc(OCCN(C)C)cc1)c1ccccc1 [Z-4OHT, 4-hydroxytamoxifen] |  |  |  |  |  |  | 
259 ± 18^b % | 11500 nM | 2390 nM | insurmountable |  | 1160 nM | 0.49^†† | surmountable antagonism | 2570 nM | > 8 fold | CC/C(=C(\c1ccc(O)cc1)c1ccc(OCCNC)cc1)c1ccccc1 [Z-End, 4-hydroxy-N-desmethyl tamoxifen] |  |  |  |  |  |  | 

The remaining lines, values behind:

Structure (SMILES) | EMAX, intracellular [3H]cAMP [1] | EC50 [1] | Ki [2] | Type of antagonism of CP-55,940 [3] | Kb ([3]; against CP-55,940, AM-630 1 μM, Z-Tam 10 μM, Z-4OHT 10 μM, read-out: Kb (antagonist dissociation constant)) | Ki [4] | Selectivity (CB1/CB2) [4] | Type of antagonism of CP-55,940 [5] | Kb [5] | Shift-to-the-right in potency (IC50) of CP-55,940 ([3]; Z-End 30 μM) | Functional activity at ERs [6] | IMAX, decrease in basal G-protein activity ([35S]GTPγS binding) [7] | Decrease in [35S]GTPγS binding [8] | inhibition at 10 µM [9] | IMAX of CP-55,940, intracellular [3H]cAMP ([3]; CP-55,940 alone or after pre-incubation with AM-630 1 μM, Z-Tam 10 μM, Z-4OHT 10 μM, Z-End 30 μM) | IMAX of CP-55,940, intracellular [3H]cAMP [5] | IMAX of CP-55,940, intracellular [3H]cAMP ([5]; listed as +Z-Tam)
CC/C(=C(\c1ccccc1)c1ccc(OCCN(C)C)cc1)c1ccccc1 [E-Tam, tamoxifen] | 464 ± 48^a^, ^†† % |  |  |  |  |  |  |  |  |  | ER agonist | 49.7 ± 1.5% |  |  |  |  | 
CC/C(=C(/c1ccc(O)cc1)c1ccc(OCCNC)cc1)c1ccccc1 [E-End, 4-hydroxy-N-desmethyl tamoxifen] | 239 ± 22^b % | 10700 nM | 2350 nM |  |  | 1390 nM | 0.59 |  |  |  |  |  |  |  |  |  | 
CC/C(=C(\c1ccccc1)c1ccc(OCCN(C)C)cc1)c1ccccc1 [Z-Tam, tamoxifen] | 374 ± 24^a^,^b^, ^††† % |  |  | surmountable antagonism |  |  |  | insurmountable |  |  | ER antagonist | 65.1± 3.0% | 11.3% | 50.8 ± 2.7% | 32.3 ± 0.7^a % | 23.0% | 23.0 ± 0.5^b %
